Measurements from patent US6855730B2, “3-methylidenyl-2-indolinone modulators of protein kinase” (Sugen, Inc., priority 1998, dated 2005).
pIC50: −log10 of the molar value.

These compounds were tested against T1, 3T3 cell line genetically engineered to express human EGF-R (Homo sapiens, UniProt P00533) (assay: EGF-induced BrdU incorporation assay). Settings: read-out: BrdU EGF driven IC50.
T1 construct: expressed in transfected cells; host or cells: 3T3
Type: cell-based
Description: The cellular/catalytic assays described herein are performed in an ELISA format. The general procedure is as follows: a compound is introduced to cells expressing the test kinase, either naturally or recombinantly, for a selected period of time after which, if the test kinase is a receptor, a ligand known to activate the receptor is added. The cells are lysed and the lysate is transferred to the wells of an ELISA plate previously coated with a specific antibody recognizing the substrate of the enzymatic phosphorylation reaction. Non-substrate components of the cell lysate are washed away and the amount of phosphorylation on the substrate is detected with an antibody specifically recognizing phosphotyrosine compared with control cells that were not contacted with a test compound. The cellular/biologic assays described herein measure the amount of DNA made in response to activation of a test kinase, which is a general measure of a proliferative response. The general procedure for this assay is as follows: a compound is introduced to cells expressing the test kinase, either naturally or recombinantly, for a selected period of time after which, if the test kinase is a receptor, a ligand known to activate the receptor is added. After incubation at least overnight, a DNA labeling reagent such as Bromodeoxyuridine (BrdU) or 3H-thymidine is added. The amount of labeled DNA is detected with either an anti-BrdU antibody or by measuring radioactivity and is compared to control cells not contacted with a test compound. […]
Protocol • (1) Cells are seeded at 8000 cells/well in 10% CS, 2mM Gin in DMEM, in a 96 well plate. Cells are incubated overnight at 37° C. in 5% CO2. • (2) After 24 hours, the cells are washed with PBS, and then are serum starved in serum free medium (0% CS DMEM with 0.1% BSA) for 24 hours. • (3) On day 3, ligand (EGF, 2 nM, prepared in DMEM with 0.1% BSA) and test compounds are added to the cells simultaneously. The negative control wells receive serum free DMEM with 0.1% BSA only, the positive control cells receive the ligand (EGF) but no test compound. Test compounds are prepared in serum free DMEM with ligand in a 96 well plate, and serially diluted for 7 test concentrations. • (4) After 20 hours of ligand activation, diluted BrdU labeling reagent (1:100 in DMEM, 0.1% BSA) is added and the cells are incubated with BrdU (final concentration=10 μM) for 1.5 hours. • (5) After incubation with labeling reagent, the medium is removed by decanting and tapping the inverted plate on a paper towel. FixDenat solution is added (50 μl/well) and the plates are incubated at room temperature for 45 minutes on a plate shaker. • (6) The FixDenat solution is thoroughly removed by decanting and tapping the inverted plate on a paper towel. Milk is added (5% dehydrated milk in PBS, 200 μl/well) as a blocking solution and the plate is incubated for 30 minutes at room temperature on a plate shaker. • (7) The blocking solution is removed by decanting and the wells are washed once with PBS. Anti-BrdU-POD solution (1:100 dilution in PBS, 1% BSA) is added (100 μ/well) and the plate is incubated for 90 minutes at room temperature on a plate shaker. • (8) The antibody conjugate is thoroughly removed by decanting and rinsing the wells 5 times with PBS, and the plate is dried by inverting and tapping on a paper towel. • (9) TMB substrate solution is added (100 μl/well) and incubated for 20 minutes at room temperature on a plate shaker until color development is sufficient for photometric detection. • (10) The absorbance of the samples are measured at 410 nm (in “dual wavelength” mode with a filter reading at 490 nm, as a reference wavelength) on a Dynatech ELISA plate reader.
In the case of `COc1c(C(C)C)cc(/C=C2/C(=O)Nc3ccccc32)cc1C(C)C` [Example 1, 3-(3,5-Diisopropyl-4-methoxybenzylidene)-1,3-dihydroindol-2-one], the pIC50 was 5.18. In the case of `COc1c(C(C)C)cc(/C=C2/C(=O)Nc3ccc(Cl)cc32)cc1C(C)C` [Example 2, 5-Chloro-3-(3,5-diisopropyl-4-methoxybenzylidene)-1,3-dihydroindol-2-one], the pIC50 was 5.19. In the case of `Cc1c[nH]c(/C=C2\C(=O)Nc3ccccc32)c1CCC(=O)O` [Example 215, 3-[4-Methyl-2-(2-oxo-1,2-dihydroindol-3-ylidenemethyl)-1H-pyrrol-3-yl]-propionic acid], the pIC50 was under 4.00. Compound `Cc1c[nH]c(/C=C2\C(=O)Nc3ccc(Cl)cc32)c1CCC(=O)O` [Example 216, 3-[2-(5-Chloro-2-oxo-1,2-dihydroindol-3-ylidenemethyl)-4-methyl-1H-pyrrol-3-yl]-propionic acid] has a pIC50 of under 4.30. `COc1ccc2c(c1)NC(=O)/C2=C\c1[nH]cc(C)c1CCC(=O)O` [Example 217, 3-[2-(6-Methoxy-2-oxo-1,2-dihydroindol-3-ylidenemethyl)-4-methyl-1H-pyrrol-3-yl]-propionic acid] showed a pIC50 of under 4.30. With `Cc1c[nH]c(/C=C2\C(=O)Nc3cccc(C)c32)c1CCC(=O)O` [Example 218, 3-[2-(4-Methyl-2-oxo-1,2-dihydroindol-3-ylidenemethyl)-4-methyl-1H-pyrrol-3-yl]-propionic acid] the pIC50 was 4.36. Work on `Cc1c[nH]c(C=C2C(=O)Nc3cc(Cl)ccc32)c1CCC(=O)O` [Example 219, 3-[2-(6-Chloro-2-oxo-1,2-dihydroindol-3-ylidenemethyl)-4-methyl-1H-pyrrol-3-yl]-propionic acid] yielded a pIC50 of under 4.30. For `Cc1c[nH]c(/C=C2\C(=O)Nc3ccc(Br)cc32)c1CCC(=O)O` [Example 220, 3-[2-(5-Bromo-2-oxo-1,2-dihydroindol-3-ylidenemethyl)-4-methyl-1H-pyrrol-3-yl]-propionic acid], the pIC50 was under 4.30. `COc1ccc2c(c1)/C(=C/c1[nH]cc(C)c1CCC(=O)O)C(=O)N2` [Example 222, 3-[2-(5-Methoxy-2-oxo-1,2-dihydroindol-3-ylidenemethyl)-4-methyl-1H-pyrrol-3-yl]-propionic acid] showed a pIC50 of under 4.30.
